Measured values: paper PMC8969271, “Release of moth pheromone compounds from Nicotiana benthamiana upon transient expression of heterologous biosynthetic genes” (BMC Biology, 2022)

What was measured:
Format in all cases: cell-based
CsupFAR2 [1] = target: T1, CsupFAR2 (Chilo suppressalis, UniProt A0A3S2LS93); experiment: heterologous expression in yeast and N. benthamiana, GC/MS of fatty alcohols; conditions: yeast supplemented with methyl (Z)-11-hexadecenoate or co-expressing CsupYPAQ; acyl form in cells, presumably acyl-CoA; product (Z)-11-hexadecenol
T1 construct: full-length ORF 1404 nt, 468 aa; synthesized gene; expressed in S. cerevisiae INVSc (pYES52) and N. benthamiana leaves
T1 sequence (A0A3S2LS93 1-468): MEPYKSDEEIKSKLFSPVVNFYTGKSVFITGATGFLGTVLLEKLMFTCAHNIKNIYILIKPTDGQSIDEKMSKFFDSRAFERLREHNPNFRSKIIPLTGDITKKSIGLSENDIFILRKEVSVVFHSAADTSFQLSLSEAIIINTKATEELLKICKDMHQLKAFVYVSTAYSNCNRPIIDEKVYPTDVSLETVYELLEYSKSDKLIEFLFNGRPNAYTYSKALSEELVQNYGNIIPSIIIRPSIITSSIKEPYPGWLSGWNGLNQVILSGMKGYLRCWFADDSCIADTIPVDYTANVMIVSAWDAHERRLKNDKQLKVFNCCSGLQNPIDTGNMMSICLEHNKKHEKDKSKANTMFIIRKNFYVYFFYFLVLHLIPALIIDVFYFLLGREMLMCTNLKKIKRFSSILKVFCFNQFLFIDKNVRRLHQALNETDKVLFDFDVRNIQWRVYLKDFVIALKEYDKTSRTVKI

ATF1 = target: T2, ATF1 (Saccharomyces cerevisiae, UniProt P40353); experiment: co-expression with desaturases and CsupFAR2 in N. benthamiana leaves, SPME and GC/MS; conditions: endogenous acetyl donor; product (Z)-11-hexadecenyl acetate
T2 construct: expressed transiently in N. benthamiana leaves with AtrΔ11, CpuFatB1, CsupYPAQ and CsupFAR2
T2 sequence (P40353 1-525): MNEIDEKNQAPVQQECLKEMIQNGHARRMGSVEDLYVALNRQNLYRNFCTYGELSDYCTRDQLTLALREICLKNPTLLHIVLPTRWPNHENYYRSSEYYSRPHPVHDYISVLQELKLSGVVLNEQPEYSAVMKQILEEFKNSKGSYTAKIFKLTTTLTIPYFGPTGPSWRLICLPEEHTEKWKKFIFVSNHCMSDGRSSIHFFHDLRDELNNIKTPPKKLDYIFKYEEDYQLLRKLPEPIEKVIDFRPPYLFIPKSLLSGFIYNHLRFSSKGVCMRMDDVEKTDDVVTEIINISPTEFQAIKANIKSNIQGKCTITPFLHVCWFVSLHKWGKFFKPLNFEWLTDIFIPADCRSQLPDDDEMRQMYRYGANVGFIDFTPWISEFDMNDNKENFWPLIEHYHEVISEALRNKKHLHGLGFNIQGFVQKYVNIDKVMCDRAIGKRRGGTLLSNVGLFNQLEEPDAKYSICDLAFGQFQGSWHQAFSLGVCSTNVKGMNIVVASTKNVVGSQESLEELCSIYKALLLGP

CsupKPSE = target: T3, CsupKPSE (Chilo suppressalis, UniProt A0A5Q0V425); experiment: heterologous expression in yeast and N. benthamiana, GC/MS of fatty acid methyl esters; conditions: endogenous palmitic acid (acyl form in cells, presumably acyl-CoA); product (Z)-9-hexadecenoic acid
T3 construct: full-length ORF 1059 nt, 353 aa; synthesized gene; expressed in S. cerevisiae ole1/elo1 and N. benthamiana leaves
T3 sequence (A0A5Q0V425 20-371): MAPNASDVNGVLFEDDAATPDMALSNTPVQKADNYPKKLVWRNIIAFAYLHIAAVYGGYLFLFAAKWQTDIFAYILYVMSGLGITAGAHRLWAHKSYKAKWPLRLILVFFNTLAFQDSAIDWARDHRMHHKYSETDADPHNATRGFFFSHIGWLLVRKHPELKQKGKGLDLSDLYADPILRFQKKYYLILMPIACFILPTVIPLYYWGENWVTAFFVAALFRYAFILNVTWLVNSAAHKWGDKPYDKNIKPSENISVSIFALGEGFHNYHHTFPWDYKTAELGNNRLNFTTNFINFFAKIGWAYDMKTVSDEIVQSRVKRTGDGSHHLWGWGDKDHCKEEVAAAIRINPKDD

CsupFAR2 [2] = target: T1, CsupFAR2; experiment: co-expression with CsupKPSE in N. benthamiana leaves, GC/MS of fatty alcohols; conditions: acyl form in cells, presumably acyl-CoA; product (Z)-9-hexadecenol

## CCCC/C=C\CCCCCCCCCC(=O)O [Z11-16:acid, (Z)-11-hexadecenoic acid]
CsupFAR2 [1]
  heterologous expression in yeast and N. benthamiana, GC/MS of fatty alcohols: it reduced the C. suppressalis pheromone precursors Z11-16:acid, Z9-16:acid

## CCCC/C=C\CCCCCCCCCCO [Z11-16:OH, (Z)-11-hexadecenol]
ATF1
  co-expression with desaturases and CsupFAR2 in N. benthamiana leaves, SPME and G: Upon co-expression of the acetyltransferase gene ATF1, Z11-16:OAc was also released together with Z11-16:OH

## CCCCCCCCCCCCCCCC(=O)O [16:acid, palmitic acid]
CsupKPSE
  heterologous expression in yeast and N. benthamiana, GC/MS of fatty acid methyl: CsupKPSE producing Z9-16:acid, the precursor of the minor pheromone component from palmitic acid

## CCCCCC/C=C\CCCCCCCC(=O)O [Z9-16:acid, (Z)-9-hexadecenoic acid]
CsupFAR2 [2]
  co-expression with CsupKPSE in N. benthamiana leaves, GC/MS of fatty alcohols: a minor amount of (Z)-9-hexadecenol (Z9-16:OH) was produced
